Reference: ChEMBL document CHEMBL1136379, “Identification of potent and broad-spectrum antibiotics from SAR studies of a synthetic vancomycin analogue” (2003)
≈ marks a conversion by molar mass, not a printed value.

Assays:
Assay type in all cases: functional
Enterococcus faecium [1] = test: Minimum inhibitory concentration against vancomycin-resistant Enterococcus faecium
Enterococcus faecium [2] = test: Compound tested for Susceptibility of vancomycin-resistant Enterococcus faecium
Streptococcus pneumoniae [3] = test: Compound tested for Susceptibility of Streptococcus pneumoniae
Enterococcus faecium [4] = test: Compound tested for Susceptibility of Enterococcus faecium
Klebsiella pneumoniae = test: Compound tested for Susceptibility of Klebsiella pneumoniae
Haemophilus influenzae [5] = test: Compound tested for Susceptibility of Haemophilus influenzae (efflux mutant)
Escherichia coli [6] = test: Compound tested for Susceptibility of Escherichia coli
Staphylococcus aureus [7] = test: Compound tested for Susceptibility of Staphylococcus aureus
Staphylococcus aureus [8] = test: Compound tested for Susceptibility of Methicillin-resistant Staphylococcus aureus […]
Pseudomonas aeruginosa = test: Compound tested for Susceptibility of Pseudomonas aeruginosa
Streptococcus pyogenes = test: Compound tested for Susceptibility of Streptococcus pyogenes
[9] = tested on: Staphylococcus epidermidis; test: Compound tested for Susceptibility of Staphylococcus epidermidis
Streptococcus pneumoniae [10] = test: Compound tested for Susceptibility of Streptococcus pneumoniae (Penicillin-intermediate)
Haemophilus influenzae [11] = test: Compound tested for Susceptibility of Haemophilus influenzae
[12] = tested on: Staphylococcus epidermidis; test: Compound tested for Susceptibility of Methicillin-resistant Staphylococcus epidermidis (MRSE)
Enterococcus faecalis = test: Compound tested for Susceptibility of Enterococcus faecalis
Moraxella catarrhalis = test: Compound tested for Susceptibility of Moraxella catarrhalis
Escherichia coli [13] = test: Compound tested for Susceptibility of Escherichia coli (efflux mutant)

SMILES | MIC (Enterococcus faecium [1]) [µg/mL] | MIC (Enterococcus faecium [2]) [µg/mL] | other results
CN[C@H](CC(C)C)C(=O)N[C@H]1C(=O)N[C@@H](CC(N)=O)C(=O)N[C@H]2C(=O)N[C@H]3C(=O)N[C@H](C(=O)N[C@H](C(=O)O)c4cc(O)cc(O)c4-c4cc3ccc4O)[C@H](O)c3ccc(c(Cl)c3)Oc3cc2cc(c3O[C@@H]2O[C@H](CO)[C@@H](O)[C@H](O)[C@H]2O[C@H]2C[C@](C)(N)[C@H](O)[C@H](C)O2)Oc2ccc(cc2Cl)[C@H]1O [VANCOMYCIN] | 600 (≈ 414 µM) | 600 (≈ 414 µM) | –
NC(=O)C[C@@H]1NC(=O)[C@H](NC(=O)OCC2c3ccccc3-c3ccccc32)Cc2ccc(cc2)Oc2c(O)ccc(CC(=O)O)c2NC1=O | 300 (≈ 451 µM) | – | –
CN[C@H](CC(C)C)C(=O)N[C@@H]1Cc2ccc(cc2)Oc2cc(ccc2O)C(C(=O)N[C@@H](CN)C(=O)N[C@@H](Cc2ccccc2)C(=O)N2Cc3[nH]c4ccccc4c3C[C@H]2C(=O)NCC(O)CNC(=O)[C@@H]2Cc3c([nH]c4ccccc34)CN2C(=O)[C@H](Cc2ccccc2)NC(=O)[C@H](CN)NC(=O)C2NC(=O)[C@H](CC(N)=O)NC(=O)[C@H](NC(=O)[C@@H](CC(C)C)NC)Cc3ccc(cc3)Oc3cc2ccc3O)NC(=O)[C@H](CC(N)=O)NC1=O (stereo not given in full) [VANCOMYCIN ANALOGUE] | 600 (≈ 292 µM) | 9 (≈ 4.38 µM) | –
CN[C@H](CC(C)C)C(=O)N[C@@H](CN)C(=O)N[C@@H](Cc1ccccc1)C(=O)N1Cc2[nH]c3ccccc3c2C[C@H]1C(N)=O | 600 (≈ 1040 µM) | > 1200 | –
CN[C@H](CC(C)C)C(=O)N[C@@H]1Cc2ccc(cc2)Oc2cc(ccc2O)C(C(=O)N[C@@H](CN)C(=O)N[C@@H](Cc2ccccc2)C(=O)N2Cc3[nH]c4ccccc4c3C[C@H]2C(=O)NCCC(O)CCNC(=O)[C@@H]2Cc3c([nH]c4ccccc34)CN2C(=O)[C@H](Cc2ccccc2)NC(=O)[C@H](CN)NC(=O)C2NC(=O)[C@H](CC(N)=O)NC(=O)[C@H](NC(=O)[C@@H](CC(C)C)NC)Cc3ccc(cc3)Oc3cc2ccc3O)NC(=O)[C@H](CC(N)=O)NC1=O (stereo not given in full) | 600 (≈ 288 µM) | 18 (≈ 8.64 µM) | –
CN[C@@H](CC(C)C)C(=O)N[C@@H]1Cc2ccc(cc2)Oc2cc(ccc2O)C(C(=O)N[C@@H](CN)C(=O)N[C@@H](Cc2ccccc2)C(=O)N2Cc3[nH]c4ccccc4c3C[C@H]2C(=O)NCCCC(O)CCCNC(=O)[C@@H]2Cc3c([nH]c4ccccc34)CN2C(=O)[C@H](Cc2ccccc2)NC(=O)[C@H](CN)NC(=O)C2NC(=O)[C@H](CC(N)=O)NC(=O)[C@H](NC(=O)[C@@H](CC(C)C)NC)Cc3ccc(cc3)Oc3cc2ccc3O)NC(=O)[C@H](CC(N)=O)NC1=O (stereo not given in full) [VANCOMYCIN ANALOGUE] | 600 (≈ 284 µM) | 38 (≈ 18 µM) | –
CN[C@H](CC(C)C)C(=O)N[C@@H]1Cc2ccc(cc2)Oc2cc(ccc2O)C(C(=O)N[C@@H](CN)C(=O)N[C@@H](Cc2ccccc2)C(=O)N2Cc3[nH]c4ccccc4c3C[C@H]2C(N)=O)NC(=O)[C@H](CC(N)=O)NC1=O (stereo not given in full) | 300 (≈ 300 µM) | 150 (≈ 150 µM) | –
CNC(CC(C)C)C(=O)N[C@@H](CN)C(=O)N[C@@H](Cc1ccccc1)C(=O)N1Cc2[nH]c3ccccc3c2C[C@H]1C(=O)NCC(O)CNC(=O)[C@@H]1Cc2c([nH]c3ccccc23)CN1C(=O)[C@H](Cc1ccccc1)NC(=O)[C@H](CN)NC(=O)[C@@H](CC(C)C)NC (stereo not given in full) | 600 (≈ 497 µM) | 18 (≈ 14.9 µM) | MIC (Streptococcus pneumoniae [3]): 16 µg/mL (≈ 13.3 µM); MIC (Enterococcus faecium [4]): 4 µg/mL (≈ 3.31 µM); MIC (Klebsiella pneumoniae): > 128 µg/mL; MIC (Haemophilus influenzae [5]): 16 µg/mL (≈ 13.3 µM); MIC (Escherichia coli [6]): 32 µg/mL (≈ 26.5 µM); MIC (Staphylococcus aureus [7]): 16 µg/mL (≈ 13.3 µM); MIC (Staphylococcus aureus [8]): 32 µg/mL (≈ 26.5 µM); MIC (Pseudomonas aeruginosa): 128 µg/mL (≈ 106 µM); MIC (Streptococcus pyogenes): 2 µg/mL (≈ 1.66 µM); MIC [9]: 24 µg/mL (≈ 19.9 µM); MIC (Streptococcus pneumoniae [10]): 8 µg/mL (≈ 6.63 µM); MIC (Haemophilus influenzae [11]): 96 µg/mL (≈ 79.5 µM); MIC [12]: 8 µg/mL (≈ 6.63 µM); MIC (Enterococcus faecalis): 8 µg/mL (≈ 6.63 µM); MIC (Moraxella catarrhalis): 8 µg/mL (≈ 6.63 µM); MIC (Escherichia coli [13]): 16 µg/mL (≈ 13.3 µM)
CC(=O)N[C@@H](CN)C(=O)N[C@@H](Cc1ccccc1)C(=O)N1Cc2[nH]c3ccccc3c2C[C@H]1C(=O)NCC(O)CNC(=O)[C@@H]1Cc2c([nH]c3ccccc23)CN1C(=O)[C@H](Cc1ccccc1)NC(=O)[C@H](CN)NC(C)=O | 600 (≈ 578 µM) | 18 (≈ 17.4 µM) | –
CC(=O)N[C@@H](CN)C(=O)N[C@@H](Cc1ccccc1)C(=O)N1Cc2[nH]c3ccccc3c2C[C@H]1C(N)=O | 600 (≈ 1220 µM) | 1200 (≈ 2450 µM) | –
